Key:
[1] = tested on: Samenleiter der Ratte; assay: Contractile activity of smooth muscle: rat vas deferens; conditions: Rattus norvegicus, read-out: Adrenalin 1.10^-6: Amplitude, % bezogen auf d.Kontrolle, Samenleiter der Ratte; Konzentration 1.10^-4 Mol; n = 9
Source text: (§1) In Versuchen an glattmpskulären Organen (Uterus, Samenleiter der Ratte und Krummdarm des Meerschweinchens) wurden die Wirkung der erfindungsgemäßen Verbindungen auf die kontraktile Aktivität der glatten Muskeln und ihre Reaktionen auf den Einfluß von Acetylcholin, Serotonin, Adrenalin und KCI als Agonisten untersucht. Mit Hilfe eines Schreibers wurden die Amplitude und die Dauer der Kontraktion der glatten Muskeln unter Verwendung eines Geräts vom Typ Mechanstron-untersucht.

[2] = tested on: Uterus der Ratte; assay: Contractile activity of smooth muscle: rat uterus; conditions: Rattus norvegicus, read-out: Serotonin 1.10^-6 (Mol): Amplitude, % bezogen auf die Kontrolle, Uterus der Ratte; Konzentration 1.10^-4 Mol; n = 9
Source text: as §1

[3] = target: T1, Acetylcholinesterase menschlicher Erythrozyten (Homo sapiens, UniProt P22303); assay: Acetylcholinesterase inhibition, spectrophotometric; type: biochemical; conditions: Acetylcholinesteraseinhibierung bei menschlichen Erythrozyten IK, (Mol), human erythrocyte enzyme
T1 construct: Acetylcholin-esteraseinhi-bierung bei menschlichen Erythrozyten; from tissue; host or cells: human erythrocytes
Source text: Untersucht wurden die Wirkmechanismen der erfindungsgemäßen Verbindungen: • 1. Die Wirkung auf Acetylcholinesterase menschlicher Erythrozyten auf spektrofotometrischem Wege. • 2.

[4] = tested on: Wirkung von Hexenal; assay: Influence on the effect of Hexenal; type: in vivo, Mäusen; conditions: mice
[5] = tested on: durch Skopolamin hervorgerufene Amnesie; assay: Dark avoidance assay (passive avoidance), scopolamine-induced amnesia; type: in vivo, Mäusen; conditions: mice, compound s.c. 5 min before learning, Skopolamin i.p. 30 min before
Procedure: Die Mäuse wurden dabei in den hellen Abschnitt der Kammer gegeben, wonach die Latenzzeit für den Übertritt in die dunkle Kammer, in der die Tiere einem Stromschlag von 0,5 mA ausgesetzt waren, registriert wurde. Danach erhöhte sich die Latenzzeit für den Übertritt in den dunklen Abschnitt und verringerte sich die Aufenthaltsdauer. 30 Minuten vor dem Versuch wurden den Mäusen i.p. […] Gedächtnisstörungen hervorrufendes Skopolamin als Cholinblocker injiziert. Die erfindungsgemäßen Verbindungen wurden s.c. 5 Minuten vor dem Lernvorgang injiziert. Das Skopolamin verkürzt die Latenzzeit für den Übertritt in die dunkle Kammer, die erfindungsgemäßen Verbindungen stellen jedoch die Latenzzeitwerte wie bei der Kontrollgruppe wieder her oder bedingen ein geringfügiges Überschreiten dieser Werte (siehe Tabelle 2). Gleichzeitig wird die Aufenthaltsdauer der Tiere im dunklen Abschnitt der Kammer auf 36 bis 45 Hundertstel des Ausgangswerts verringert.

[6] = tested on: isolierten Präparaten des rechten Vorhofs von Kaninchen; assay: Antiarrhythmic effect on isolated right atrium preparations (microelectrodes: AP duration, refractory period R, e/R); conditions: isolated right atrium of rabbit, microelectrodes
Source text: (§2) Die antiarrhythmische Wirkung der erfindungsgemäßen Verbindungen wurde in zwei Versuchsserien untersucht, und zwar an isolierten Präparaten des rechten Vorhofs von Kaninchen und mit Hilfe des Calciumchlorid-Arrhythmie-Modells an Ratten. In den Versuchen an den isolierten Präparaten des rechten Vorhofs wurden mit Hilfe von Mikroelektroden die Dauer des AP sowie der Refraktärzeit (R) und die maximale Hemmung (e) und der Parameter (e/R) untersucht, durch den die Anfälligkeit des Myokards gegenüber der Entstehung von Arrhythmien gekennzeichnet wird. In den Versuchen an Ratten wurden diesen Calciumchlorid in einer Dosierung von 250 mg/kg injiziert. Registriert wurden das Vorliegen von Kammerflimmern und die Lebensdauer der Tiere. Sämtliche erfindungsgemäßen Verbindungen üben eine mäßige antiarrhythmische Wirkung aus. Sie steigern die Refraktärzeit des Muskels und des AP um 35 bis 145 % und verringern gleichzeitig die Anfälligkeit des Myokards, ausgedrückt durch den Parameter e/R um 10 bis 80 % (s. Tabelle 4). In bezug auf diese Wirkung waren die Salze der bicyclischen Basen wirksamer als Amyridin. Bezüglich des Vermögens, die Tiere vor Kammerflimmern und vor dem Tod nach Verabreichung von 250 mg/kg Calciumchlorid zu schützen, waren diese Verbindungen ebenfalls am stärksten wirksam. Bei Verwendung des Calciumchlorid-Arrhythmie-Modells waren viele erfindungsgemäßen Verbindungen stärker wirksam als das klassische Antiarrhythmikum Chinidin (s. M.D. Ma s kovskij, Lekarstvennye sredstva, Bd. 1, S. 401, Moskau, Medicina, 1984).

[7] = tested on: Zahl der Krämpfe; assay: Writhing test (intraperitoneal acetic acid); type: in vivo, Mäusen; conditions: male mice
Source text: Die analgetische Wirkung der erfindungsgemäßen Verbindungen wurde an männlichen Mäusen anhand des "Krampf"-Tests (Writhing-Tests) unter intraperitonealer Injizierung von Essigsäure und des Hot-plate-Tests untersucht. Im ersten Falle wurde die analgetische Wirkung der Verbindungen anhand der prozentualen Verringerung der Zahl der Krämpfe ermittelt. Beim zweiten Test wurde die Schwelle der Schmerzempfindlichkeit (Ablecken der Pfoten) bestimmt. Die stärkste analgetische Wirkung der erfindungsgemäßen Verbindungen zeigte sich beim "Krampf"-Test. Dabei übertrafen die Salze der bicyclischen Basen Amyridin, aber nicht alle erfindungsgemäßen Verbindungen waren schwächer als Morphin (s. Tabelle 4).

[8] = Acute toxicity, single intraperitoneal injection, probit analysis (LD50); type: in vivo, Mäusen; conditions: mice, i.p.
Source text: Ihre akute Toxizität wurde an Mäusen (einmalige intraperitoneale Injektion) nach der Methode der Probit-Analyse nach Zichtfield, Wilcoxon, t949 untersucht. In Tabelle 2 sind die Parameter der akuten Toxizität (LDso) angegeben, die eine mäßige Toxizität der erfindungsgemäßen Verbindungen belegen.

[9] = tested on: Calciumchlorid-Arrhythmie-Modells; assay: Calcium chloride arrhythmia model (250 mg/kg): ventricular fibrillation, survival; type: in vivo, Ratten; conditions: rats, calcium chloride 250 mg/kg
Source text: as §2

[10] = tested on: Nerven-Muskel-Präparat von Mäusen (n.peroneus-m.extensor digitorum longus); assay: Neuromuscular transmission in isolated nerve-muscle preparation (EPP, minEPP); conditions: for Stimulierung der Nerven-Muskelübertragung, in % der Amplitude: EPP: EPP = Endplattenpotential
Source text: Der Einfluß der Stoffe auf die Nerven-Muskei-Übertragung wurde am isolierten Nerven-Muskel-Präparat von Mäusen (n.peroneus-m.extensor digitorum longus) (s. Bhattacharyya B. et al. "Neuromuscular blocking action of two hemicholinium-3 analogs" Europ. J. Pharmac. 146, 155-165 /1988/) untersucht, das von Lilly-Lösung perfundiert wurde, durch die man ein Gemisch von 02 und C02 leitete. […] Das Endplattenpotential (EPP) und das Endplattenminiaturpotential (minEPP) wurden mit Hilfe eines Magnetografen aufgezeichnet und danach mit dem Computer ausgewertet. Ermittelt wurden die Frequenz (f), die Amplitude (A) und die Dauer (t) der minEPP und der EPP (s. Tabelle 2).

[11] = Side effects and CNS/behaviour: tremor (TD50), sedative and m-cholinomimetic effects; type: in vivo; conditions: for Verhältnis TD50 zu ED50: ED50 = dose blocking the effect of Skopolamin in 50 % of the animals (passive avoidance, mice); for TD50 (Tremor): toxic dose causing tremor in 50 % of the animals
Source text: Von Interesse ist der Einfluß der erfindungsgemäßen Verbindungen auf das ZNS und das Verhalten der Tiere.

[12] = tested on: Orientierungsaktivität; assay: Influence on orientation activity; type: in vivo, Mäusen; conditions: mice
Source text: Von Interesse ist der Einfluß der erfindungsgemäßen Verbindungen auf das ZNS und das Verhalten der Tiere. Alle Verbindungen zeigen eine Kombination von stimulierenden und sedativen Eigenschaften und bei höheren Dosen auch eine m-cholinomimetische Wirkung, wobei Tremor, Speichelfluß und Diarrhoe ausgelöst werden.

[13] = tested on: Na -Durchlässigkeit der Membrane des Ranvier-Schnürringes; assay: Na+ permeability of the node of Ranvier membrane, voltage clamp; design: species or system Frosches; conditions: node of Ranvier, frog sciatic nerve fibres, voltage clamp; concentration giving 50 % block of ion permeability; read-out: Blockierung der Na^+-Durchlässigkeit der Membrane Ic50 (Mol)
Source text: (§3) Untersucht wurden die Wirkmechanismen der erfindungsgemäßen Verbindungen: • 1. Die Wirkung auf Acetylcholinesterase menschlicher Erythrozyten auf spektrofotometrischem Wege. • 2. Die Wirkung auf die K - und Na -Durchlässigkeit der Membrane des Ranvier-Schnürringes (s. Fox T.M. et al. "Modification of ionic membrane currrents of Ranvier nodes by UV-radiation under voltage clamp conditions", Experientia, 27, 1289-1290 /1971/ und Arhom P. et al. "Local anesthetics: effects on permeability properties of nodal membrane in myelynated nerve fibres from xenopus". Acta physiol. Scand. 91, 11-21 /1974/) der Nervenfasern des Hüftnervs des Frosches unter Anwendung der Methode der Messung der Membranspannung (Voltage-clampmethode) (s. Derksen H.E. "Axon membrane voltage fluctuations", Acta Physiol., Pharmacol Neer, 13, 373-466 /1965/).
(§4) Alle erfindungsgemäßen Verbindungen sind Blocker für die K^+-Durchlässigkeit der Membrane analog dem Amyridin. Die Salze der bicyclischen Basen blockieren jedoch stärker die Na -Durchlässigkeit der Membrane, was sich mit ihren sedativen und analgetischen Eigenschaften in Verbindung bringen läßt.

[14] = tested on: K -Durchlässigkeit der Membrane des Ranvier-Schnürringes; assay: K+ permeability of the node of Ranvier membrane, voltage clamp; design: species or system Frosches; conditions: node of Ranvier, frog sciatic nerve fibres, voltage clamp; concentration giving 50 % block of ion permeability; read-out: Blockierung der K^+-Durchlässigkeit der Membrane Ic50 (Mol)
Source text: as §3, §4

T1 sequence (P22303 other isoform, or with tags, fused parts or gaps): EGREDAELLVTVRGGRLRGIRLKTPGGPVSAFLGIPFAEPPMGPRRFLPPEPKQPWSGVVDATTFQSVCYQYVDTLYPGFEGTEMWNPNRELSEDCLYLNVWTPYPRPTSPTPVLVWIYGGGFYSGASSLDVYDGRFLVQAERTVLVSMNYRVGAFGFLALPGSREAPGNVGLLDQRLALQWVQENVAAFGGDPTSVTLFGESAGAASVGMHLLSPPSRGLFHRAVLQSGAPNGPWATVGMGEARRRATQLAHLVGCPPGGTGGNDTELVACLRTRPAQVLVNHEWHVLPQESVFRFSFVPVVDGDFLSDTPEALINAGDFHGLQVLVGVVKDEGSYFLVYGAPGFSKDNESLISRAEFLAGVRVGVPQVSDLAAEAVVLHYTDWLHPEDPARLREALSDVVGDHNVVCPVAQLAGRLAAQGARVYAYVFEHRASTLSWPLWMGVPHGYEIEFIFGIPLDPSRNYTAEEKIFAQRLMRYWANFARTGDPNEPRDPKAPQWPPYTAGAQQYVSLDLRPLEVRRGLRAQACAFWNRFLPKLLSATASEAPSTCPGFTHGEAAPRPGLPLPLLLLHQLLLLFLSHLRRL

Compound | activity at 100 µM [1] | activity at 100 µM [2] | Ki [3] | Änderung der Dauer der Seitenlage, in %: Hexenal 60 mg/kg [4] | Einfluß auf das Gedächtnis: Zahl der Tiere in %, bei denen die Skopolaminwirkung aufgehoben wurde [5] | Antiarrhythmische Wirkung: Verlängerung d. Refraktärzeit (R), in % [6] | Analgetische Wirkung: Abnahme d. Zahl der "Krämpfe" bei Mäusen, in % [7] | LD50 [8] | Antiarrhythmische Wirkung: Verlängerung d. Lebensdauer von Ratten an Hand des CaCl2-Arrhythmie-Modells, in % [9] | Stimulierung der Nerven-Muskelübertragung, in % der Amplitude: EPP [10] | Stimulierung der Nerven-Muskelübertragung, in % der Amplitude: minEPP [10] | Verhältnis TD50 zu ED50 [11] | TD50 (Tremor) [11] | Änderung der Orientierungsaktivität, in % [12] | IC50 [13] | IC50 [14]
Cc1nc2c(c(N)c1C)CCC2 [Verbindung 10] | 160% | 160% | 0.123 µM | 0% | 80% | 120% | 60% | 15 mg/kg | 180% | 38% | 79% | 7,5 | 6 mg/kg | 0% |  | 
Cc1nc2c(c(N)c1C)CCC2 [Verbindung 14] |  |  | 0.35 µM | +15% | 70% | 100% | 50% | 17 mg/kg | 90% | 30% | 62% | 8,2 | 9 mg/kg | -7% |  | 
Cc1nc2c(c(N)c1C)CCC2 [Verbindung 15] |  |  | 0.65 µM | +30% | 72% | 90% | 65% | 16 mg/kg | 110% | 40% | 75% | 6,8 | 7 mg/kg | -15% |  | 
Cc1nc2c(c(N)c1C)CCC2 [Verbindung 16] |  |  | 0.58 µM | +22% | 75% | 80% | 50% | 21 mg/kg | 70% | 42% | 78% | 6,6 | 10 mg/kg | -10% |  | 
CCc1nc2c(c(N)c1C)CCC2 [Verbindung 28] |  |  | 6.1 µM |  | 80% |  |  | 40 mg/kg |  | 22% | 48% | 11 | 20 mg/kg |  | 150 µM | 120 µM
CCc1nc2c(c(N)c1C)CCC2 [Verbindung 29] |  |  | 6 µM |  | 70% |  |  | 35 mg/kg |  | 18% | 40% | 12 | 22 mg/kg |  | 300 µM | 200 µM
CCc1nc2c(c(N)c1C)CCC2 [Verbindung 30] |  |  | 5.1 µM |  | 75% |  |  | 40 mg/kg |  | 24% | 45% | 11 | 22 mg/kg |  | 350 µM | 280 µM

— EP0326134A1, “4-Amino-2,3-disubstituted-6,7-dihydro-5H-1-pyridine derivatives, process for their preparation and medicaments containing them” (NAUCHNO-ISSLEDOVATELSKY INSTITUT TEKHNOLOGII I BEZOPASNOSTI …, priority 1988, dated 1989)
